US8865763B2, “Methods and compositions for altering cell function” (Alltech, Inc., priority 2005, dated 2014)

Columns and labels:
[1] = tested on: Glutathione S-transferase, mu2 (Gstm2); test: Microarray gene expression, mouse intestine: Gstm2; format: in vivo; conditions: diet 1 ppm Se, vs Se-deficient diets, negative = down
Text: (§1) Animal Care. Male C57BL/6J mice were housed singly and started on the experimental diets described below immediately after weaning (21 days of age). The mice were maintained in the Shared Aging Rodent Facility at the William S. Middleton Memorial Veterans Administration Medical Center (Madison, Wis.). Temperature and humidity were maintained at constant levels. Room light was controlled to provide 12-hr cycles of light and dark.
(§2) Experimental diets were created by Harlan Teklad (Madison, Wis.). Selenium content of the diets was determined by Covance Inc. (Madison, Wis.). Five (5) animals were included in each of the following treatment groups: a diet deficient in selenium (SD); a diet supplemented with selenomethionine (SM, obtained from Sigma, St. Louis, Mo.) such that the final selenium content of the diet was one (1) part per million; a diet supplemented with sodium selenite (SS, Sigma) such that the final concentration of selenium in this diet was one (1) part per million; or a diet supplemented with the yeast selenium SEL-PLEX (SP, Alltech, Lexington, Ky.), such that the final concentration of selenium in this diet was one (1) part per million. SEL-PLEX. […]
(§3) Tissue sample preparation and microarray analysis. […] For intestinal expression studies, the intestine was flushed twice with saline solution and small intestine was measured and divided in three equal segments. […]

[2] = tested on: Complement component 1, q subcomponent, gamma polypeptide, C1qg; test: Microarray gene expression, mouse cerebral cortex: C1qg; format: in vivo; conditions: diet 1 ppm Se, vs selenium deficient, * p<0.01
Text: as §1, §2, §3

[3] = tested on: Cathepsin B; test: Microarray gene expression, mouse cerebral cortex: Cathepsin B; format: in vivo; conditions: diet 1 ppm Se, vs Se-deficient mice, * significant
Text: as §1, §2, §3

[4] = tested on: Amyloid beta (A4) precursor-like protein (Aplp 1); test: Microarray gene expression, mouse cerebral cortex: Aplp 1; format: in vivo; conditions: diet 1 ppm Se, vs Se-deficient animals, * P < 0.01
Text: as §1, §2, §3

[5] = tested on: Glutathione Peroxidase 3; test: Microarray gene expression, mouse intestine: Glutathione Peroxidase 3; format: in vivo; conditions: diet 1 ppm Se, vs selenium deficient, all p < 0.01
Text: as §1, §2, §3

[6] = tested on: SOD1; test: Microarray gene expression, mouse intestine: SOD1; format: in vivo; conditions: diet 1 ppm Se, vs selenium deficient
Text: as §1, §2, §3

[7] = tested on: Cu chaperone for SOD (CCS); test: Microarray gene expression, mouse intestine: CCS; format: in vivo; conditions: diet 1 ppm Se, vs selenium deficient
Text: as §1, §2, §3

[8] = tested on: Gst pi 1 (Gstp1); test: Microarray gene expression, mouse cerebral cortex: Gstp1; format: in vivo; conditions: diet 1 ppm Se, vs Se-deficient animals, * significant
Text: as §1, §2, §3

[9] = Body weight of mice on selenium diets; format: in vivo, mouse; conditions: diet 1 ppm Se vs selenium deficient diet; FIG. 1
Text: as §1
Experimental diets were created by Harlan Teklad (Madison, Wis.). Selenium content of the diets was determined by Covance Inc. (Madison, Wis.). […]
Thus, it was an object of the present invention to determine whether compositions and methods of the present invention could alter the expression levels (e.g., mRNA levels) of various genes. One group of genes analyzed were genes classically associated with selenium. As described above, the expression levels of genes were analyzed between mice with and without dietary selenium, or, between mice fed different sources of selenium) (See, e.g., Table 1, below).

[10] = tested on: Selenoprotein W (SelW); test: Microarray gene expression, mouse intestine: SelW; format: in vivo; conditions: diet 1 ppm Se, vs selenium deficient
Text: as §1, §2, §3

[11] = tested on: Gadd45g1p (Growth arrest and DNA-damage inducible 45 gamma interacting protein); test: Microarray gene expression, mouse cerebral cortex: Gadd45g1p; format: in vivo; conditions: diet 1 ppm Se, vs Se-deficient animals, * significant
Text: as §1, §2, §3

[12] = tested on: Complement component 1, q subcomponent, alpha polypeptide, C1qa; test: Microarray gene expression, mouse cerebral cortex: C1qa; format: in vivo; conditions: diet 1 ppm Se, vs selenium deficient, * p<0.01
Text: as §1, §2, §3

[13] = tested on: Type 1 iodothyronine deiodinase; test: Microarray gene expression, mouse intestine: Type 1 iodothyronine deiodinase; format: in vivo; conditions: diet 1 ppm Se, vs selenium deficient
Text: as §1, §2, §3

[14] = tested on: Nicastrin; test: Microarray gene expression, mouse cerebral cortex: Nicastrin; format: in vivo; conditions: diet 1 ppm Se, vs Se-deficient animals, * P < 0.01
Text: as §1, §2, §3

[15] = tested on: Presenilin 1; test: Microarray gene expression, mouse cerebral cortex: Presenilin 1; format: in vivo; conditions: diet 1 ppm Se, vs Se-deficient animals, * P < 0.01
Text: as §1, §2, §3

[16] = tested on: Growth arrest and DNA-damage-inducible 45 gamma (Gadd45g); test: Microarray gene expression, mouse intestine: Gadd45g; format: in vivo; conditions: diet 1 ppm Se, vs selenium deficient, negative = down, listed as SS
Text: as §1
Experimental diets were created by Harlan Teklad (Madison, Wis.). Selenium content of the diets was determined by Covance Inc. (Madison, Wis.). Five (5) animals were included in each of the following treatment groups: a diet deficient in selenium (SD); a diet supplemented with selenomethionine (SM, obtained from Sigma, St. Louis, Mo.) such that the final selenium content of the diet was one (1) part per million; a diet supplemented with sodium selenite (SS, Sigma) such that the final concentration of selenium in this diet was one (1) part per million; or a diet supplemented with the yeast selenium SEL-PLEX (SP, Alltech, Lexington, Ky.), such that the final concentration of selenium in this diet was one (1) part per million. SEL-PLEX. Mice were provided with water and their respective diet ad libitum for 100 days. Diets were stored at the dark at 4° C. and fresh diet was added to feeder twice weekly.
Tissue sample preparation and microarray analysis. Mice were killed at 100 days of age by cervical dislocation. For intestinal expression studies, the intestine was flushed twice with saline solution and small intestine was measured and divided in three equal segments. A 3-cm region of the middle segment of the small intestine corresponding to the jejunum (˜300 mg of tissue) was cut and rinsed again with physiological saline to completely remove contents, flash frozen in liquid nitrogen and stored at −80° C. For brain (e.g., cerebral cortex) studies, the cerebral cortex was separated from the surrounding brain tissue and was flash frozen in liquid nitrogen and stored at −80° C. […]

[17] = tested on: Amyloid beta (A4) precursor protein-binding, family A, member 1(Apba1); test: Microarray gene expression, mouse cerebral cortex: Apba1; format: in vivo; conditions: diet 1 ppm Se, vs Se-deficient animals, * P < 0.01
Text: as §1, §2, §3

[18] = tested on: Glutathione Peroxidase 1; test: Microarray gene expression, mouse intestine: Glutathione Peroxidase 1; format: in vivo; conditions: diet 1 ppm Se, vs selenium deficient, all p < 0.01
Text: as §1, §2, §3

[19] = tested on: Gadd45b; test: Microarray gene expression, mouse cerebral cortex: Gadd45b; format: in vivo; conditions: diet 1 ppm Se, vs Se-deficient animals, * significant
Text: as §1, §2, §3

[20] = tested on: Thioredoxin Reductase 1; test: Microarray gene expression, mouse intestine: Thioredoxin Reductase 1; format: in vivo; conditions: diet 1 ppm Se, vs selenium deficient, p <0.01
Text: as §1, §2, §3

[21] = tested on: SelR (Selenoprotein X1); test: Microarray gene expression, mouse intestine: SelR; format: in vivo; conditions: diet 1 ppm Se, vs selenium deficient
Text: as §1, §2, §3

[22] = tested on: Complement component 1, r subcomponent, C1r; test: Microarray gene expression, mouse cerebral cortex: C1r; format: in vivo; conditions: diet 1 ppm Se, vs selenium deficient, * p<0.01
Text: as §1, §2, §3

[23] = tested on: Gst mu 7 (Gstm7); test: Microarray gene expression, mouse cerebral cortex: Gstm7; format: in vivo; conditions: diet 1 ppm Se, vs Se-deficient animals, * significant
Text: as §1, §2, §3

[24] = tested on: Cathepsin D; test: Microarray gene expression, mouse cerebral cortex: Cathepsin D; format: in vivo; conditions: diet 1 ppm Se, vs Se-deficient mice, * significant
Text: as §1, §2, §3

[25] = tested on: Glutathione S-transferase, theta 2 (Gstt2); test: Microarray gene expression, mouse intestine: Gstt2; format: in vivo; conditions: diet 1 ppm Se, vs Se-deficient diets, negative = down
Text: as §1, §2, §3

[26] = tested on: Junb; test: Microarray gene expression, mouse cerebral cortex: Junb; format: in vivo; conditions: diet 1 ppm Se, vs Se-deficient animals, * significant
Text: as §1, §2, §3

[27] = tested on: Glutathione S-transferase, alpha 3 (Gsta3); test: Microarray gene expression, mouse intestine: Gsta3; format: in vivo; conditions: diet 1 ppm Se, vs Se-deficient diets, negative = down
Text: as §1, §2, §3

[28] = tested on: Amyloid beta (A4) precursor protein-binding, family B, member 1 (Apbb1 or Fe65); test: Microarray gene expression, mouse cerebral cortex: Apbb1/Fe65; format: in vivo; conditions: diet 1 ppm Se, vs Se-deficient animals, * P < 0.01
Text: as §1, §2, §3

[29] = tested on: Gst zeta 1 (Gstz1); test: Microarray gene expression, mouse cerebral cortex: Gstz1; format: in vivo; conditions: diet 1 ppm Se, vs Se-deficient animals, * significant
Text: as §1, §2, §3

[30] = tested on: Complement component 1, q subcomponent binding protein, C1qbp; test: Microarray gene expression, mouse cerebral cortex: C1qbp; format: in vivo; conditions: diet 1 ppm Se, vs selenium deficient, * p<0.01
Text: as §1, §2, §3

[31] = tested on: Cathepsin Z; test: Microarray gene expression, mouse cerebral cortex: Cathepsin Z; format: in vivo; conditions: diet 1 ppm Se, vs Se-deficient mice, * significant
Text: as §1, §2, §3

[32] = tested on: Glutathione S-transferase, mu3 (Gstm3); test: Microarray gene expression, mouse intestine: Gstm3; format: in vivo; conditions: diet 1 ppm Se, vs Se-deficient diets, negative = down
Text: as §1, §2, §3

[33] = tested on: Cathepsin O; test: Microarray gene expression, mouse cerebral cortex: Cathepsin O; format: in vivo; conditions: diet 1 ppm Se, vs Se-deficient mice, * significant
Text: as §1, §2, §3

[34] = tested on: Glutathione S-transferase, mu1 (Gstm1); test: Microarray gene expression, mouse intestine: Gstm1; format: in vivo; conditions: diet 1 ppm Se, vs Se-deficient diets, negative = down
Text: as §1, §2, §3

[35] = tested on: Complement component 1, q subcomponent, beta polypeptide, C1qbp; test: Microarray gene expression, mouse cerebral cortex: C1q beta polypeptide; format: in vivo; conditions: diet 1 ppm Se, vs selenium deficient, * p<0.01
Text: as §1, §2, §3

[36] = Hen Brain Se Concentration; format: in vivo, White-Egg-Laying Hens; conditions: hens; diet with 0.3 ppm Se from the source
Method: (§4) Compositions and methods of the present invention were utilized to evaluate the effects of various Se sources on the accumulation of brain Se concentrations in hens and their offspring.
(§5) The study was conducted at the Coldstream Research Facility from Jun. 28, 2004 until Nov. 16, 2004. Six dietary treatments were fed to a total of 48 hens (r=8) that were bred on three consecutive days starting on Sep. 16, 2004.
(§6) • Basal (no added Se) • Selenite (0.3 ppm) • Sel Plex (0.3 ppm) • Tepsel (0.3 ppm) • Se 2000 (0.3 ppm) • Selenosource (0.3 ppm)
(§7) Chicks that hatched were divided into two groups. Half of the chicks were killed for brain collection and the remaining chicks were allowed to grow for 14 days on a Se deficient diet, at which time they were terminated for brain collection. Hen brains were analyzed for Se content individually, whereas the chick brains were homogenized and pooled because of small sample size.
(§8) Brain Se concentrations for the hens and chicks are shown in Tables 4 and 5, below, respectively. The Selenosource value represents only one hen brain analyzed and therefore was not included in the statistical analysis.

[37] = Chick Brain Se Concentration at day 14; format: in vivo, chicks (offspring of treated hens); conditions: offspring of hens fed 0.3 ppm Se; chicks 14 days on Se deficient diet; pooled brains
Method: as §4, §5, §6, §7, §8

O=[Se](O)O [Sod-sel, sodium selenite]
FC (fold change) expression of Gstm2 [1]: −2.1 fold | FC (fold change) expression of C1qg [2]: −1.07 fold | FC (fold change) expression of Cathepsin B [3]: −1.13* fold | FC (fold change) expression of Aplp 1 [4]: −1.55* fold | fold change in expression of Glutathione Peroxidase 3 [5]: 3.5 fold | enhanced expression of SOD1, fold [6]: 1.92 fold | enhancement in expression of the Cu chaperone for SOD (CCS), fold [7]: 1.28 fold | FC (fold change) expression of Gstp1 [8]: 1.02 fold | body weights of mice [9]: No significant differences | expression of Selenoprotein W (SelW), fold upregulated [10]: 5.1 fold | FC (fold change) expression of Gadd45g1p in brain [11]: −1.12 fold | FC (fold change) expression of C1qa [12]: −1.18 fold | fold increase of expression level of Type 1 iodothyronine deiodinase [13]: 2.8 fold | FC (fold change) expression of Nicastrin [14]: −1.67* fold | FC (fold change) expression of Presenilin 1 [15]: −1.11 fold | FC (fold change) expression of Gadd45g [16]: −2.0 fold | FC (fold change) expression of Apba1 [17]: −1.41 fold | fold change in expression of Glutathione Peroxidase 1 [18]: 4.1 fold | FC (fold change) expression of Gadd45b in brain [19]: −1.39* fold | fold increase in expression of the Thioredoxin Reductase 1 gene [20]: 1.7 fold | expression of SelR, fold upregulated [21]: 1.3 fold | FC (fold change) expression of C1r [22]: −1.29 fold | FC (fold change) expression of Gstm7 [23]: −1.25* fold | FC (fold change) expression of Cathepsin D [24]: −1.24* fold | FC (fold change) expression of Gstt2 [25]: −1.3 fold | FC (fold change) expression of Junb [26]: −1.59 fold | FC (fold change) expression of Gsta3 [27]: −2.3 fold | FC (fold change) expression of Apbb1 (Fe65) [28]: −1.32* fold | FC (fold change) expression of Gstz1 [29]: −1.3 fold | FC (fold change) expression of C1qbp [30]: 1.11 fold | FC (fold change) expression of Cathepsin Z [31]: −1.30* fold | FC (fold change) expression of Gstm3 [32]: −2.7 fold | FC (fold change) expression of Cathepsin O [33]: −1.18 fold | FC (fold change) expression of Gstm1 [34]: −2.4 fold | FC (fold change) expression of complement component 1, q subcomponent, beta polypeptide [35]: −1.35 fold

O=[Se](O)O [Selenite]
Hen Brain Se Concentration [36]: 850 ppb | Chick Brain Se Concentration at day 14 [37]: 784 ppb
